The values that follow come from article PMC12150293 (RSC Advances, 2025).

Read-outs that look alike come from different tables or passages of the source.

In one assay the test system is BEAS-2B cells. The assay can be described thus: MTT cytotoxicity assay on normal human lung epithelial cells. The following applies: 48 h, read-out: BEAS-2B IC50.
The next assay relates to A549 cells. The assay can be described thus: MTT cytotoxicity assay on non-small cell lung cancer cells. The following applies: read-out: A549 IC50.
The subject of another assay is MDA-MB-231 cells. The assay can be described thus: MTT cytotoxicity assay on breast cancer cells. Conditions: read-out: MDA-MB-231 IC50.

Take `O=C(Nc1ccc([N+](=O)[O-])cc1)C(c1ccccc1)N(C(=O)/C=C/c1ccc(C(F)(F)F)cc1)c1ccccc1` (centres unmarked) [Compound 23, (E)-N-(2-((4-Nitrophenyl)amino)-2-oxo-1-phenylethyl)-N-phenyl-3-(4-(trifluoromethyl)-phenyl)acrylamide]: the half-inhibitory concentration (IC50) is 30.9 ± 2.3 µM with BEAS-2B cells; 26.1 ± 2.1 µM with A549 cells (Homo sapiens, A549, 48 h); 30.3 ± 2.4 µM with MDA-MB-231 cells (Homo sapiens, MDA-MB-231, 48 h).

`O=C(NCC(=O)N(c1ccccc1)C(C(=O)Nc1ccc([N+](=O)[O-])cc1)c1ccc(C(F)(F)F)cc1)c1ccccc1` (centres unmarked) [Compound 11, N-(2-((2-((4-Nitrophenyl)amino)-2-oxo-1-(4-(trifluoromethyl)phenyl)ethyl)(phenyl)amino)-2-oxoethyl)benzamide]: the IC50 in the assay with BEAS-2B cells amounted to 82.1 ± 7.3 µM; in the assay on A549 cells (Homo sapiens, A549, 48 h), 53.9 ± 4.4 µM; in the assay on MDA-MB-231 cells (Homo sapiens, MDA-MB-231, 48 h) it was 60.2 ± 4.9 µM.

`O=C(Nc1ccc([N+](=O)[O-])cc1)C(c1ccc(C(F)(F)F)cc1)N(C(=O)c1ccccc1I)c1ccccc1` (centres unmarked) [Compound 7, 2-Iodo-N-(2-((4-nitrophenyl)amino)-2-oxo-1-(4-(trifluoromethyl)phenyl)ethyl)-N-phenyl-benzamide]: the IC50 amounted to 75.6 ± 5.8 µM in the assay with BEAS-2B cells; 20.6 ± 1.5 µM with A549 cells (Homo sapiens, A549, 48 h); 28.2 ± 1.4 µM with MDA-MB-231 cells (Homo sapiens, MDA-MB-231, 48 h).

In the case of `O=C(Nc1ccc([N+](=O)[O-])cc1)C(c1ccc(C(F)(F)F)cc1)N(Cc1ccccc1)C(=O)CNS(=O)(=O)c1ccccc1` (centres unmarked) [Compound 17, N-Benzyl-N-(2-((4-nitrophenyl)amino)-2-oxo-1-(4-(trifluoromethyl)phenyl)ethyl)-2-(phenylsulfonamido)acetamide], the IC50 was found to be 50.2 ± 3.4 µM with BEAS-2B cells; 40.8 ± 2.8 µM in the assay on A549 cells (Homo sapiens, A549, 48 h); 57 ± 4.8 µM in the assay on MDA-MB-231 cells (Homo sapiens, MDA-MB-231, 48 h).

With `N.N.[Cl][Pt][Cl]` [Cisplatin, cisplatin, reference compound], the IC50 with A549 cells (MTT assay, 48 h, mean ± SEM) came out at 10.1 ± 0.7 µM; in the assay on MDA-MB-231 cells (MTT assay, 48 h, mean ± SEM), 12.2 ± 0.8 µM.

`Cc1ccc(N(C(=O)c2ccccc2I)C(C(=O)Nc2ccc([N+](=O)[O-])cc2)c2ccc(C(F)(F)F)cc2)cc1` (centres unmarked) [Compound 8, 2-Iodo-N-(2-((4-nitrophenyl)amino)-2-oxo-1-(4-(trifluoromethyl)phenyl)ethyl)-N-(p-tolyl)-benzamide]: the IC50 with BEAS-2B cells was determined as 62.2 ± 4.2 µM; with A549 cells (Homo sapiens, A549, 48 h) it was 20.5 ± 1.1 µM; in the assay with MDA-MB-231 cells (Homo sapiens, MDA-MB-231, 48 h), 27.1 ± 1.8 µM.

For the molecule `O=C(Nc1ccc([N+](=O)[O-])cc1)C(c1ccc(C(F)(F)F)cc1)N(C(=O)CNS(=O)(=O)c1ccccc1)c1ccccc1` (centres unmarked) [Compound 13, N-(4-Nitrophenyl)-2-(N-phenyl-2-(phenylsulfonamido)acetamido)-2-(4-(trifluoromethyl)-phenyl)acetamide], the IC50 in the assay on BEAS-2B cells was 98.5 ± 7.4 µM; in the assay with A549 cells (Homo sapiens, A549, 48 h) it was 64.1 ± 5.9 µM; with MDA-MB-231 cells (Homo sapiens, MDA-MB-231, 48 h) it was 73.9 ± 5.3 µM.

As to `O=C(NCC(=O)N(Cc1ccccc1)C(C(=O)Nc1ccc([N+](=O)[O-])cc1)c1ccc(C(F)(F)F)cc1)c1ccccc1` (centres unmarked) [Compound 16, N-(2-(Benzyl(2-((4-nitrophenyl)amino)-2-oxo-1-(4-(trifluoromethyl)phenyl)ethyl)amino)-2-oxoethyl)benzamide], the IC50 in the assay with BEAS-2B cells was 63.8 ± 4.8 µM; in the assay with A549 cells (Homo sapiens, A549, 48 h) it was 22.4 ± 0.8 µM; in the assay with MDA-MB-231 cells (Homo sapiens, MDA-MB-231, 48 h), 27.3 ± 1.5 µM.

As to `O=C(Nc1ccc([N+](=O)[O-])cc1)C(c1ccccc1)N(Cc1ccccc1)C(=O)/C=C/c1ccc(C(F)(F)F)cc1` (centres unmarked) [Compound 25, (E)-N-Benzyl-N-(2-((4-nitrophenyl)amino)-2-oxo-1-phenylethyl)-3-(4-(trifluoromethyl)-phenyl)acrylamide], the IC50 in the assay on BEAS-2B cells amounted to 129 ± 8.7 µM; in the assay on A549 cells (Homo sapiens, A549, 48 h), 90.2 ± 8.5 µM; in the assay with MDA-MB-231 cells (Homo sapiens, MDA-MB-231, 48 h), 95.4 ± 8.1 µM.

As for `Cc1ccc(N(C(=O)c2ccc3ccccc3n2)C(C(=O)Nc2ccc([N+](=O)[O-])cc2)c2ccc(C(F)(F)F)cc2)cc1` (centres unmarked) [Compound 19, N-(2-((4-Nitrophenyl)amino)-2-oxo-1-(4-(trifluoromethyl)phenyl)ethyl)-N-(p-tolyl)-quinoline-2-carboxamide], the IC50 with BEAS-2B cells stood at 50.1 ± 3.3 µM; in the assay with A549 cells (Homo sapiens, A549, 48 h) it was 46.2 ± 4.1 µM; in the assay with MDA-MB-231 cells (Homo sapiens, MDA-MB-231, 48 h) it was 73.1 ± 5.7 µM.

Take `O=C(Nc1ccc([N+](=O)[O-])cc1)C(c1ccc(C(F)(F)F)cc1)N(C(=O)c1ccc2ccccc2n1)c1ccccc1` (centres unmarked) [Compound 18, N-(2-((4-Nitrophenyl)amino)-2-oxo-1-(4-(trifluoromethyl)phenyl)ethyl)-N-phenylquinoline-2-carboxamide]: the IC50 in the assay on BEAS-2B cells amounted to 55.7 ± 3.5 µM; in the assay with A549 cells (Homo sapiens, A549, 48 h) it was 20.1 ± 1.4 µM; in the assay with MDA-MB-231 cells (Homo sapiens, MDA-MB-231, 48 h), 25.1 ± 1.9 µM.

Take `O=C(Nc1ccc([N+](=O)[O-])cc1)C(c1ccc(C(F)(F)F)cc1)N(C(=O)Cc1ccccc1)c1ccccc1` (centres unmarked) [Compound 9, 2-(N,2-Diphenylacetamido)-N-(4-nitrophenyl)-2-(4-(trifluoromethyl)phenyl)acetamide]: the IC50 was determined as 71.6 ± 5.7 µM with BEAS-2B cells; 46.4 ± 2.8 µM with A549 cells (Homo sapiens, A549, 48 h); 70.6 ± 6.1 µM in the assay on MDA-MB-231 cells (Homo sapiens, MDA-MB-231, 48 h).

With `Cc1ccc(N(C(=O)CNC(=O)c2ccccc2)C(C(=O)Nc2ccc([N+](=O)[O-])cc2)c2ccc(C(F)(F)F)cc2)cc1` (centres unmarked) [Compound 12, N-(2-((2-((4-Nitrophenyl)amino)-2-oxo-1-(4-(trifluoromethyl)phenyl)ethyl)(p-tolyl)amino)-2-oxoethyl)benzamide], the IC50 in the assay on BEAS-2B cells is 98.2 ± 8.1 µM; in the assay on A549 cells (Homo sapiens, A549, 48 h), 73.1 ± 6.6 µM; in the assay with MDA-MB-231 cells (Homo sapiens, MDA-MB-231, 48 h) it was 65.3 ± 4.7 µM.

For `O=C(Nc1ccc([N+](=O)[O-])cc1)C(c1ccc(C(F)(F)F)cc1)N(Cc1ccccc1)C(=O)Cc1ccccc1` (centres unmarked) [Compound 15, N-Benzyl-N-(2-((4-nitrophenyl)amino)-2-oxo-1-(4-(trifluoromethyl)phenyl)-ethyl)-2-phenyl-acetamide], the IC50 in the assay with BEAS-2B cells was 69.4 ± 4.7 µM; with A549 cells (Homo sapiens, A549, 48 h) it was 61.1 ± 4.5 µM; in the assay on MDA-MB-231 cells (Homo sapiens, MDA-MB-231, 48 h), 65.7 ± 5.4 µM.

As for `Cc1ccc(N(C(=O)/C=C/c2ccc(C(F)(F)F)cc2)C(C(=O)Nc2ccc([N+](=O)[O-])cc2)c2ccccc2)cc1` (centres unmarked) [Compound 24, (E)-N-(2-((4-Nitrophenyl)amino)-2-oxo-1-phenylethyl)-N-(p-tolyl)-3-(4-(trifluoromethyl)-phenyl)acrylamide], the IC50 in the assay with BEAS-2B cells is 54.2 ± 4.1 µM; with A549 cells (Homo sapiens, A549, 48 h) it was 20.4 ± 1.7 µM; in the assay with MDA-MB-231 cells (Homo sapiens, MDA-MB-231, 48 h) it was 22.1 ± 1.6 µM.

Turning to `O=c1[nH]cc(F)c(=O)[nH]1` [Compound 5-FU, 5-fluorouracil, reference compound], the IC50 with BEAS-2B cells turned out to be 7.2 ± 0.5 µM; in the assay on A549 cells (Homo sapiens, A549, 48 h), 11.3 ± 1.1 µM; with MDA-MB-231 cells (Homo sapiens, MDA-MB-231, 48 h) it was 14.4 ± 0.9 µM.

For the molecule `Cc1ccc(N(C(=O)c2ccccc2Cl)C(C(=O)Nc2ccc([N+](=O)[O-])cc2)c2ccc(C(F)(F)F)cc2)cc1` (centres unmarked) [Compound 6, 2-Chloro-N-(2-((4-nitrophenyl)amino)-2-oxo-1-(4-(trifluoromethyl)phenyl)-ethyl)-N-(p-tolyl)benzamide], the IC50 came out at 50.1 ± 3.6 µM with BEAS-2B cells; 39.9 ± 2.7 µM in the assay on A549 cells (Homo sapiens, A549, 48 h); 54.2 ± 4.7 µM in the assay with MDA-MB-231 cells (Homo sapiens, MDA-MB-231, 48 h).

Turning to `Cc1ccc(N(C(=O)CNS(=O)(=O)c2ccccc2)C(C(=O)Nc2ccc([N+](=O)[O-])cc2)c2ccc(C(F)(F)F)cc2)cc1` (centres unmarked) [Compound 14, N-(4-Nitrophenyl)-2-(2-(phenylsulfonamido)-N-(p-tolyl)acetamido)-2-(4-(trifluoromethyl)-phenyl)acetamide], the IC50 amounted to 84.7 ± 6.9 µM in the assay with BEAS-2B cells; 55.3 ± 4.2 µM in the assay on A549 cells (Homo sapiens, A549, 48 h); 74.8 ± 6.1 µM in the assay with MDA-MB-231 cells (Homo sapiens, MDA-MB-231, 48 h).

As to `Cc1ccc(N(C(=O)Cc2ccccc2)C(C(=O)Nc2ccc([N+](=O)[O-])cc2)c2ccc(C(F)(F)F)cc2)cc1` (centres unmarked) [Compound 10, N-(4-Nitrophenyl)-2-(2-phenyl-N-(p-tolyl)acetamido)-2-(4-(trifluoromethyl)phenyl)-acetamide], the IC50 with BEAS-2B cells was found to be 83.3 ± 6.8 µM; with A549 cells (Homo sapiens, A549, 48 h), 71.5 ± 6.8 µM; in the assay with MDA-MB-231 cells (Homo sapiens, MDA-MB-231, 48 h), 84.4 ± 6.9 µM.
